The text below walks through data of PMC8306139, “A Novel Dialkylamino-Functionalized Chalcone, DML6, Inhibits Cervical Cancer Cell Proliferation, In Vitro, via Induction of Oxidative Stress, Intrinsic Apoptosis and Mitotic Catastrophe” (Molecules, 2021).

Format in all cases: cell-based
In data set [1] the test system is caspase-3/7 in OV2008 cells. The data set is described as follows: Time-dependent apoptosis induction (Caspase-3/7 Green reagent). The method, then: Cell Event™ Caspase-3/7 Green Detection Reagent from (Catalog # C10423, Life Technologies, Carlsbad, CA, USA), which is a novel fluorogenic substrate for activated caspase-3/7 that is compatible with living cells, was used to determine apoptosis activation in real-time in OV2008 cells incubated with DML6. Briefly, OV2008 cells were seeded in 96-well plates at a density of 1 × 10^3 cell/well. Twenty-four hours later, the cells were incubated with the vehicle (DMEM media with 10% FBS and 1% penicillin and streptomycin), 5 or 20 µM of DML6 for 72 h. Five micromolar of the apoptosis-detecting reagents were added to the cells immediately after DML6 and were incubated for up to 72 h at 37 °C. Fluorescence was determined every 24h using a live cell imaging system (IncuCyte Zoom, Essen Bioscience, Ann Arbor, MI, USA, using an absorption/emission maximum of ~502/530 nm.

In the next data set the test system is caspase-9. The data set is described as follows: Western blot, cleaved caspase-9. Conditions: OV2008, 20 μM, 24 hours, vs vehicle. On the procedure:
(§1) The OV2008 cells were lysed to obtain total cellular protein fractions using Mammalian Protein Extraction Reagent (Catalog # 78501, M-PER™, Thermo Fisher Scientific, Waltham, MA, USA). The cells were seeded in […] at a density of 1 × 10^6 and incubated with 5 or 20 µM of DML6 or 1 µM of doxorubicin (Catalog # T1-2-, TargetMol, Boston, MA, USA) (a positive control) for 24 h. The following day, the cells were washed with ice-cold PBS, scraped using a cell scrapper and collected in Eppendorf tubes. The tubes were centrifuged at 1500 RPM at 4 °C for 5 min. The solution was discarded and replaced with 70 µL of the cell lysis buffer (M-PER reagent, 100 mM Sodium Orthovanadate (NaOV) at a final concentration of 2.5 mM) and a 100X protease inhibitor cocktail (Catalog # P8340, Sigma-Aldrich, St. Louis, MO, USA, final concentration of 1X, containing of aprotinin, bestatin, E-64, leupeptin and pepstatin). Thirty minutes later, the resulting solution was centrifuged at 10,000 RPM at 4 °C for 5 min and the supernatant was collected. The protein concentration of the cell extracts was determined using the bicinchoninic acid (BCA) (Catalog # 786-570, G-Biosciences, Saint Louis, MO, USA) quantification assay. […] Finally, the amount of protein in each blot was quantified using the Image J software (NIH, Bethesda, MD, USA). All data were calculated as a ratio to β-actin.

The next data set concerns caspase-3. The data set is described as follows: Western blot, cleaved caspase-3. Conditions: OV2008, 5 or 20 µM, vs vehicle. On the procedure:
as §1

In another data set the test system is DU145. The data set is described as follows: MTT assay, DU145. Conditions: Homo sapiens, DU-145, 72 h, read-out: IC50 ± SD Prostate DU145.
Data set [2] relates to human colon fibroblast cells (CRL1459). The data set is described as follows: MTT assay, CRL1459. Conditions: 72 h.
Experimental: (§2) The concentration of the tested compounds that produced a 50% inhibition of cell growth (IC50) was determined.
(§3) A panel of cancer cell lines, including cervical (OV2008 and HeLa), breast (MDA-MB-231), lung (A549) and colon (LOVO), prostate (DU145), human embryonic kidney cells (HEK293), human colon fibroblast cells (CRL1459), and Chinese hamster ovary cells (CHO), were grown as adherent monolayers in flasks containing Dulbecco’s modified Eagle medium (DMEM), supplemented with 10% fetal bovine serum (FBS) and 1% penicillin and streptomycin, in a humidified incubator with 5% CO2 at 37 °C.
The cells were seeded evenly (180 μL/well) in 96-well plates, at a density of 3000–5000 cells/well and incubated with serial dilutions of the compounds ranging from 0.1 to 100 μM. […] Cytation™ 5 and Cytation™ 7 multi-mode detector (Bio Tek Instruments, Winooski, VT, USA) was used to determine the absorbance readings at a wavelength of 570 nm. The IC50 values were determined based on 3 separate experiments, with each experiment carried out in triplicate. The selectivity of the compounds was determined by comparing their IC50 values in cervical cancer compared to the normal epithelial cell lines, HEK293, CHO, and CRL1459.
The test system of a further data set is cancer cell lines. The data set is described as follows: MTT assay, panel of cancer cell lines.
Another data set deals with MDA-MB-231. The data set is described as follows: MTT assay, MDA-MB-231. Conditions: Homo sapiens, MDA-MB-231, 72 h, read-out: IC50 ± SD Breast MDA-MB-231.
The test system of another data set is OV2008 cells. The data set is described as follows: Apoptosis and mitochondrial membrane potential (MitoTracker Red / Alexa Fluor 488 annexin V). Conditions: 24 h; for percentage of apoptotic cells in quadrant II (Q2): vehicle 8.41%; for percentage of live cells in quadrant I (Q1): vehicle 90.86%. On the procedure: MitoTracker® Red and Alexa Fluor 488 annexin V kits for flow cytometry (Molecular Probes Inc., Eugene, OR, USA) were used to determine the mitochondrial membrane potential and apoptosis, respectively, in OV2008 cells, as previously described. OV2008 cells were seeded in 6-well plates and incubated with the vehicle, 5 or 20 μM of DML6 for 24 h. The following day, the cells were trypsinized using 0.25% trypsin, 2.21 mM EDTA, 1×, counted and 4 μL of 10 μM MitoTracker® Red working solution was added to 1 mL of the harvested cells. The cells were incubated at 37 °C with 5% CO2 for 30 min. The cells were washed with ice-cold phosphate-buffered saline (PBS), followed by cell resuspension in 100 μL of the annexin binding buffer. The cell suspensions were then incubated with 5 μL of Alexa Fluor 488 annexin V for 15 min, followed by adding 400 μL of the annexin-binding buffer. Finally, flow cytometry was used to detect the fluorescence of stained cells at the following excitation/emission maximum: Alexa Fluor® 488 annexin V: 499/521 nm; MitoTracker® Red: 579/599 nm, using a flow cytometer BD FACSCanto™ (BD Biosciences, Becton-Dickinson, San Jose, CA, USA) and analyzed using FCS Express 7 plus De Novo software (Glendale, CA, USA).

Experimental for DU145: as §2, §3
(§4) The cells were seeded evenly (180 μL/well) in 96-well plates, at a density of 3000–5000 cells/well and incubated with serial dilutions of the compounds ranging from 0.1 to 100 μM. The MTT dye (4 mg/ml) was added after 72 h of incubation and incubated with the cells for an additional 4 h at 37 °C, allowing the viable cells to biotransform the yellow-colored MTT into dark-blue formazan crystals. Following incubation, the medium was aspirated, and the formazan crystals were dissolved by adding 100 μL of DMSO to each well. Cytation™ 5 and Cytation™ 7 multi-mode detector (Bio Tek Instruments, Winooski, VT, USA) was used to determine the absorbance readings at a wavelength of 570 nm. The IC50 values were determined based on 3 separate experiments, with each experiment carried out in triplicate.
Experimental for MDA-MB-231: as §2, §3, §4
Experimental for cancer cell lines: as §2, §3
The cells were seeded evenly (180 μL/well) in 96-well plates, at a density of 3000–5000 cells/well and incubated with serial dilutions of the compounds ranging from 0.1 to 100 μM. The MTT dye (4 mg/ml) was added after 72 h of incubation and incubated with the cells for an additional 4 h at 37 °C, allowing the viable cells to biotransform the yellow-colored MTT into dark-blue formazan crystals. Following incubation, the medium was aspirated, and the formazan crystals were dissolved by adding 100 μL of DMSO to each well. Cytation™ 5 and Cytation™ 7 multi-mode detector (Bio Tek Instruments, Winooski, VT, USA) was used to determine the absorbance readings at a wavelength of 570 nm. The IC50 values were determined based on 3 separate experiments, with each experiment carried out in triplicate. The selectivity of the compounds was determined by comparing their IC50 values in cervical cancer compared to the normal epithelial cell lines, HEK293, CHO, and CRL1459.

For `CN(C)c1ccc(/C=C/C(=O)c2ccc(Cl)cc2Cl)cc1` [DML6, (E)-1-[2,4-dichlorophenyl]-3-(4-(dimethylamino)phenyl)prop-2-en-1-one], the results for the “incubation time required to induce apoptosis” value in data set [1] (5 µM) and in data set [1] (20 µM) were “≈ 48 h” and < 24 h, respectively. For the same compound, the “apoptosis induction by activating caspase-3 and caspase-7” value in data set [1] (5 or 20 μM, time-dependent, vs vehicle) was “significantly induced apoptosis”. Moreover, in the data set on caspase-9, the “cleavage of initiator caspase-9” value is recorded as “induced the cleavage”. For the same compound, the “cleavage (activation) of caspase-3” value in the data set on caspase-3 is listed as “significantly increased the cleavage”. Further, the IC50 is 96.9 ± 4.4 µM with DU145; 7.8 to 91.9 µM with cancer cell lines (range over the cell lines, read-out: IC50 values in all of the cancer cell lines); 91.9 ± 11.5 µM in the data set with MDA-MB-231. Also, the “cytotoxicity in normal cells, CRL1459” value in data set [2] is “did not produce significant cytotoxicity”. Further, the “anti-proliferative efficacy in a wide range of cancer cell lines, compared to normal cells” value in the data set on cancer cell lines was “moderate to good anti-proliferative efficacy”. For the same compound, the “percentage of apoptotic cells in quadrant II (Q2)” value in the data set on OV2008 cells (5 µM) came to 41.38%; in the data set with OV2008 cells (20 µM) it was 73.67%. Besides, the “percentage of live cells in quadrant I (Q1)” value in the data set on OV2008 cells (5 µM) stood at 53.39%; in the data set on OV2008 cells (20 µM), 22.37%.
